Experimental data taken from article PMC11788822, “Uncovering the potent antimicrobial activity of squaramide based anionophores – chloride transport and membrane disruption” (Chemical Science, 2025).
Several values for one entry are separate records, joined by “and”; a condition that tells them apart may be missing. Equal entries are not always repeated.

Legend:
[1] = set-up: method as in doi:10.1021/jo01097a026; details: for the relevant substitution pattern; cited from earlier work
S. aureus = test: Growth inhibition assay, S. aureus; format: cell-based, Staphylococcus aureus; details: 24 h, growth (OD 600 nm) relative to control, 37 °C; for IC80 / IC50: Staphylococcus aureus
Experimental: (§1) To determine IC50/80 values, growth (optical density) of S. aureus, methicillin-resistant S. aureus (MRSA), P. aeruginosa, and K. pneumoniae when treated with a range of concentrations of each active compound in vitro was measured at 600 nm after a 24 h incubation period at 37 °C. Each compound was studied for activity below […], and those showing little activity above 200 μM, were noted as such, and omitted from further study.
Staphylococcus aureus culture conditions
S. aureus (ATCC33951) was cultured at 37 °C in Nutrient broth (Oxoid), in an orbital shaker at 200 rpm. Stocks were kept on nutrient agar, stored at 4 °C for up to 2 months, or as glycerol stocks (50/50 glycerol:culture), stored at -70 °C indefinitely. […]
(§2) Bacterial cultures were brought to early stationary phase overnight, in nutrient broth (containing 25/50 µg/mL Ampicillin for MRSA/K. pneumoniae, respectively) at 37 °C. Cultures were diluted to an OD600 = 0.01. Aliquots of Culture (100 µl) were added to 100 µL serially diluted compound (200 – 0.78 µM) in nutrient broth in a 96-well plate (Sarstedt, Germany).
(§3) Plates were incubated at 37 °C for 24 h and growth was measured at 600 nm, where growth was measured and represented relative to control. […]

[2] = test system: methicillin-resistant S. aureus (MRSA); test: Growth inhibition assay, MRSA; format: cell-based, Staphylococcus aureus; details: 24 h; for IC50 / IC80: Staphylococcus aureus, MRSA; for IC50: read-out: MRSA IC50, growth (OD 600 nm) relative to control, 24 h, 37 °C; for IC80: read-out: MRSA IC80, growth (OD 600 nm) relative to control, 24 h, 37 °C; for MRSA IC50: growth (OD 600 nm) relative to control, 37 °C
Experimental: as §1
Staphylococcus aureus culture conditions […]
Methicillin-resistant Staphylococcus aureus culture conditions
Methicillin-resistant S. aureus (clinical isolate – St. James’ University Hospital, Dublin) was cultured at 37 °C in Nutrient broth (Oxoid), containing 25 µg/mL Ampicillin in an orbital shaker at 200 rpm. Stocks were kept on nutrient agar containing 25 µg/mL Ampicillin, stored at 4 °C for up to 2 months, or as glycerol stocks (50/50 glycerol:culture), stored at -70 °C indefinitely. […]
as §2, §3

[3] = 1H NMR titration with TBACl, Cl− binding; details: association constant towards Cl−, compound 2.5 mM, 95% DMSO-d6, 1:1 binding model (Bindfit), errors below 10%
Experimental: To verify if 1–6 formed host–guest complexes with Cl^− in solution, ^1H NMR titrations of each compound (2.5 mM) with TBACl were carried out in DMSO-d6. Increasing equivalents of Cl^− were incrementally added, with spectral information obtained upon addition of each molar equivalent of Cl^−. […] Taking 1 as an example (Fig. 2), upon addition of sequential aliquots of Cl^− there is a clear downfield shift of both squaramide NHs, with minor contributions to the binding cleft derived from the ortho-aryl protons of the aniline of 1. The binding data from each titration was fitted to a 1 : 1 binding model using the Bindfit[36] open access software, and the results are tabulated below (Table 1), alongside the respective Hammett constant for the relevant substitution pattern.[37] […] This aligns with previously reported receptors,[38] where compounds containing CF3 substituents in particular are known to have increased anion binding affinity as well as transport ability.[39]

[4] = Lucigenin Cl−/NO3− exchange assay in LUVs; details: Cl− transport, 0.4 mM POPC/cholesterol 7:3 LUVs, Hill fit at 270 s
Experimental: Given our objective was to use such transport behaviour as a method to disrupt anion homeostasis in bacteria, we also conducted anion transport assays in Large Unilamellar Liposomes (LUVs) using the well-established Lucigenin-based Cl^−/NO3^− exchange assay.[40] Briefly, LUVs containing the chloride sensitive dye lucigenin in a NaNO3 solution were prepared and a NaCl pulse was added to create a chloride concentration gradient. Upon addition of the putative transporter, the quenching of the fluorescence of lucigenin was monitored over time to assess Cl^− influx.
Lucigenin Cl-/NO3- anion exchange assay
LUV preparation and Lucigenin assays were carried out following procedures outlined by Valkenier and co-workers.8 Large unilamellar liposomes (LUVs) were synthesized using 1-palmitoyl-2-oleoyl-sn-glycero-3-phosphocholine (POPC)(11.2 µmol, soln. in CHCl3) and Cholesterol (4.8 µmol) mixed in a ratio of 7:3. This mixture was brought to dryness under gentle vacuum and subsequently, the mixture was rehydrated in an aqueous Lucigenin solution (1 mL, 0.8mM lucigenin in 225 mM NaNO3) and stirred for 1 h to obtain heterogeneous vesicles. After that, the vesicles underwent 9 freeze-thaw cycles and were extruded through a […] polycarbonate membrane 29 times to obtain monodisperse LUVs. A Sephadex G-100 size-exclusion column was employed to remove any unencapsulated lucigenin. The collected liposomes were diluted to 40 mL with 225 mM NaNO3 to obtain a homogeneous 0.4 mM liposome solution. Lucigenin fluorescence quenching was monitored in a time dependent manner using an Agilent Spectrofluorimeter to access Cl- influx (λ ex = 430 nm, λem = 505 nm).
Cl- transport behaviour was initiated at t=0 s by adding each compound as a solvate in DMSO followed by a 25 mM NaCl pulse (75µL, 1 M NaCl in […] NaNO3) to a 3 mL liposome solution. The data was collected for at least 600 s and then Triton X-100 (5% w/w in water) was added to lyse the liposomes, and normalize to 100% efflux. The recorded data was normalised and the fraction fluorescence intensity at 270 s of each tested concentration of transporters (mol%) was plotted against transporter concentration (mol%). The data obtained was fitted to the Hill equation to obtain the EC50 value at 270 s (the concentration to obtain the half maximum effect) by using Originlab 2024b or Graphpad Prism 10:
y = START + (END ‒ START) ∗ xn/(kn + xn)
Where n is the Hill coefficient, k presents the EC 50 value.

[5] = test system: panel of Gram-positive and -negative pathogens; test: Zone of inhibition assay; format: cell-based; details: 5 μL of 1 mM stock on nutrient agar, 37 °C, 24 h; radius ≤ 2 mm deemed not active
Experimental: To do this, a zone of inhibition assay was used as a qualitative measure of activity. To do so, 5 μL of a 1 mM stock of the respective compound was pipetted atop nutrient agar which was previously spread with a panel of Gram-positive and -negative pathogens of interest. Following incubation at 37 °C for 24 h, zones of inhibition were measured and recorded for each compound. Zones with a radius ≤ 2 mm were deemed as not active, and thus eliminated from further study.

Row | Structure (SMILES) | Hammett parameter (σ) [1] | IC80 (S. aureus) | IC50 (S. aureus) | S. aureus IC50 (S. aureus) | IC50 [2] | IC80 [2] | MRSA IC50 [2] | K a [3] | EC50 (mol%) [4] | zone of inhibition, qualitative measure of activity [5]
1 | O=c1c(Nc2ccc(Cl)cc2)c(NC23CC4CC(CC(C4)C2)C3)c1=O [Compound 3] | 0.23 | > 200 µM | > 200 µM | lay outside the concentration range tested | > 200 µM | > 200 µM | lay outside the concentration range tested | 207 M⁻¹ | 0.2597 mol% and 0.260 mol% | promising bioactivity
2 | O=c1c(Nc2ccccc2Cl)c(NC23CC4CC(CC(C4)C2)C3)c1=O [Compound 5] |  | > 200 µM | > 200 µM | lay outside the concentration range tested | > 200 µM | > 200 µM | lay outside the concentration range tested | 44 M⁻¹ | 1.349 mol% | promising bioactivity
3 | O=c1c(Nc2ccccc2)c(NC23CC4CC(CC(C4)C2)C3)c1=O [Compound 6] | 0.0 | > 200 µM | > 200 µM | lay outside the concentration range tested | > 200 µM | > 200 µM | lay outside the concentration range tested | 138 M⁻¹ |  | 
